Experiments:
PKR(R510Q) = PKR(R510Q) (Homo sapiens, UniProt P30613, R510Q); assay: Luminescence Biochemical Assay (Kinase Glo Plus), PKR R510Q; details: without FBP; for AC50: read-out: D—AC50 LUM KGP woFBP AC50 μM gmean
Description: (§1) In some embodiments, a PKR Activating Compound refers to a compound having one or more characteristics when tested according to the following Luminescence Assay Protocol of Example 3 performed with wild type (wt) PKR and/or any one or more of G332S mutant form of PKR or R510Q mutant form of PKR: (1) an AC50 value of less than 40 μM (e.g., compounds with AC50 values of “+”, “++”, or “+++” in Table 2); (2) a maximum % Fold (MAX % Fold) value of greater than 75%; and/or (3) a % Fold value at 1.54 μM compound concentration (% Fold@1.54 μM) of at least 75%. In some embodiments, a PKR Activating Compound can have: (1) an AC50 value of less than 0.1 μM (e.g., compounds with AC50 values of “+++” in Table 2), 0.1-1.0 μM (e.g., compounds with AC50 values of “++” in Table 2), or 1.01-40 μM (e.g., compounds with AC50 values of “+” in Table 2); (2) a MAX % Fold of 75%-250%, 250-500%, or 75%-500%; and/or (3) a % Fold@1.54 μM of 75%-250%, 250-500%, or 75%-500%. In some embodiments, a PKR Activating Compound has (1) an AC50 value of less than 1.0 μM; (2) a MAX % Fold of 75%-500%; and/or (3) a % Fold@1.54 μM of 75%-500%.
(§2) The phosphorylation of Adenosine-5′-diphosphate (ADP) by various mutants of PKR was determined by the Kinase Glo Plus Assay (Promega) in the presence or absence of FBP [D-Fructose-1,6-diphosphate; BOC Sciences, CAS: 81028-91-3] as follows. Unless otherwise indicated, all reagents were purchased from Sigma-Aldrich. All reagents were prepared in buffer containing 50 mM Tris-HCl, 100 mM KCl, 5 mM MgCl2, and 0.01% Triton X100, 0.03% BSA, and 1 mM DTT. Enzyme and PEP [Phospho(enol) pyruvic acid] were added at 2× to all wells of an assay-ready plate containing serial dilutions of test compounds or DMSO vehicle. Final enzyme concentrations for PKR(wt), PKR(R510Q), and PKR(G332S) were 0.8 nM, 0.8 nM, and 10 nM respectively. Final PEP concentration was 100 μM. The Enzyme/PEP mixture was incubated with compounds for 30 minutes at RT before the assay was initiated with the addition of 2×ADP [Adenosine-5′-diphosphate] and KinaseGloPlus. Final concentration of ADP was 100 μM. […] For assays containing FBP, that reagent is added at 30 μM upon reaction initiation. Reactions were allowed to progress for 45 minutes at RT until luminescence was recorded by the BMG PHERAstar FS Multilabel Reader. All compounds were tested in triplicate at concentrations ranging from 42.5 μM to 2.2 nM in 0.83% DMSO.
Luminescence values were converted to % Fold increase by normalizing to the average of the DMSO control and multiplying by 100. Max, min, slope and AC50 were determined by the standard four parameter fit algorithm of ActivityBase XE Runner. Compounds were evaluated with three parameters—AC50, MAX % Fold, and % Fold@1.54 μM (FIG. 1). The AC50 value for a compound is the concentration (μM) corresponding to the midway between the maximum and minimum values of the four parameter logistic curve fit (i.e., at which the % fold increase along the four parameter logistic curve fit is halfway between MAX % Fold and MIN % Fold (% Fold Midpoint)), MAX % Fold is the highest fold increase observed at any concentration of compound, and % Fold@1.54 μM is the fold increase at a compound concentration of 1.54 μM. The parameter % Fold@1.54 μM was selected to capture elements of both the AC50 and MAX % Fold and to provide a ranking based on both potency and effect. […]

PKR(G332S) = PKR(G332S) (Homo sapiens, UniProt P30613, G332S); assay: Luminescence Biochemical Assay (Kinase Glo Plus), PKR G332S; details: with FBP (30 μM); for AC50: read-out: A—AC50 LUM KGP FBP AC50 μM gmean
Description: as §1, §2
Luminescence values were converted to % Fold increase by normalizing to the average of the DMSO control and multiplying by 100. Max, min, slope and AC50 were determined by the standard four parameter fit algorithm of ActivityBase XE Runner. Compounds were evaluated with three parameters—AC50, MAX % Fold, and % Fold@1.54 μM (FIG. 1). […]

PKR(wt) = PKR(wt) (Homo sapiens, UniProt P30613); assay: Luminescence Biochemical Assay (Kinase Glo Plus), wild type PKR; details: without FBP; for AC50: read-out: G—AC50 LUM KGP woFBP AC50 μM gmean
Description: as §1, §2
Luminescence values were converted to % Fold increase by normalizing to the average of the DMSO control and multiplying by 100. Max, min, slope and AC50 were determined by the standard four parameter fit algorithm of ActivityBase XE Runner. Compounds were evaluated with three parameters—AC50, MAX % Fold, and % Fold@1.54 μM (FIG. 1). The AC50 value for a compound is the concentration (μM) corresponding to the midway between the maximum and minimum values of the four parameter logistic curve fit (i.e., at which the % fold increase along the four parameter logistic curve fit is halfway between MAX % Fold and MIN % Fold (% Fold Midpoint)), MAX % Fold is the highest fold increase observed at any concentration of compound, and % Fold@1.54 μM is the fold increase at a compound concentration of 1.54 μM. The parameter % Fold@1.54 μM was selected to capture elements of both the AC50 and MAX % Fold and to provide a ranking based on both potency and effect. The compound concentration of 1.54 μM was chosen as one that can optimally differentiate the set of compounds based on the range of activities observed.
As set forth in Table 2 below, AC50 values (columns A, D, G) are defined as follows: ≤0.1 μM (+++); >0.1 μM and ≤1.0 μM (++); >1.0 μM and ≤40 μM (+); >40 μM (0). Max % FOLD values (columns B, E, H) are defined as follows: ≤75% (+); >75% and ≤250% (++); >250% and ≤500% (+++). % Fold@1.54 μM values (columns C, F, J) are defined as follows: ≤75% (+); >75% and ≤250% (++); >250% and ≤500% (+++).

PKR(wt), sequence (P30613 whole entry): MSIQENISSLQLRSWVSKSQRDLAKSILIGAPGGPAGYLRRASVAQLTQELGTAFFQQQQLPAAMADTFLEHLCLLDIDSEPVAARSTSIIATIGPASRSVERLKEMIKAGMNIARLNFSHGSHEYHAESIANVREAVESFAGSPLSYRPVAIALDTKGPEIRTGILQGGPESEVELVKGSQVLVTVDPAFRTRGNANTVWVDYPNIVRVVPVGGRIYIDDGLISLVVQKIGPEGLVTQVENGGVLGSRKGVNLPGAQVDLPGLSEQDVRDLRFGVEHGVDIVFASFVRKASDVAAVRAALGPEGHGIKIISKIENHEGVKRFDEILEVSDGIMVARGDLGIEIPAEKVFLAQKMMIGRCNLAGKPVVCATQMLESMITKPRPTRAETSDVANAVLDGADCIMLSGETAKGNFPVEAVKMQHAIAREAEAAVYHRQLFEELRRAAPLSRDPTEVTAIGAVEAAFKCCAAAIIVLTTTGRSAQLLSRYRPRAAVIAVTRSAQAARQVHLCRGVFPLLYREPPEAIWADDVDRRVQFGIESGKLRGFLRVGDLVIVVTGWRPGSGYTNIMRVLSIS
PKR(G332S), sequence (P30613 whole entry G332S): as the sequence (P30613 whole entry) above, with G332S counted along it
PKR(R510Q), sequence (P30613 whole entry R510Q): as the sequence (P30613 whole entry) above, with R510Q counted along it

AC50 (PKR(wt)) | AC50 (PKR(R510Q)) | Structure (SMILES) | also measured
 | 1 to 40 µM | Cc1nc2ccc(S(=O)(=O)N3CC4=C(CN(C(=O)Cc5ccc(Cl)cc5)C4)C3)cc2s1 [Compound 24] | 
 | 1 to 40 µM | C[C@@H](C(=O)N1CC2=C(C1)CN(S(=O)(=O)c1c[nH]c3c(Cl)nccc13)C2)c1ccccc1 [Compound 25] | AC50 (PKR(G332S)): 1 to 40 µM
1 to 40 µM |  | CN1CCOc2ccc(S(=O)(=O)N3CC4=C(CN(C(=O)CC5CCOCC5)C4)C3)cc21 [Compound 26] | 
1 to 40 µM |  | Cc1nn(C(C)C(=O)N2CC3=C(C2)CN(S(=O)(=O)c2ccc4occc4c2)C3)cc1Cl (centres unmarked) [Compound 27] | 
1 to 40 µM |  | O=C(CC1CCS(=O)(=O)CC1)N1CC2=C(C1)CN(S(=O)(=O)c1ccc3occc3c1)C2 [Compound 28] | 
1 to 40 µM |  | CC(=O)N1CCOc2ccc(S(=O)(=O)N3CC4=C(CN(C(=O)C(C)c5ccc(F)cc5)C4)C3)cc21 (centres unmarked) [Compound 29] | 
1 to 40 µM | 1 to 40 µM | CN1CCOc2ccc(S(=O)(=O)N3CC4=C(CN(C(=O)C5(c6cccc(F)c6)CC5)C4)C3)cc21 [Compound 30] | AC50 (PKR(G332S)): 1 to 40 µM

Structure (SMILES) | AC50 (PKR(wt)) | AC50 (PKR(R510Q)) | also measured
O=C([C@H](O)c1ccccc1)N1CC2=C(C1)CN(S(=O)(=O)c1ccccn1)C2 [Compound 1, (2R)-2-hydroxy-2-phenyl-1-[5-(pyridine-2-sulfonyl)-1H,2H,3H,4H, 5H,6H-pyrrolo[3,4-c]pyrrol-2-yl]ethan-1-one] | ≤ 0.1 µM |  | E—AC50 LUM KGP woFBP MAX % FOLD mean (PKR(R510Q)): +++ (>250% and ≤500% (+++)); F—AC50 LUM KGP woFBP % Fold@1.54 μM mean (PKR(R510Q); 1.54 μM compound): ++ (>75% and ≤250% (++)); B—AC50 LUM KGP FBP MAX % FOLD mean (PKR(G332S)): ++ (>75% and ≤250% (++)); C—AC50 LUM KGP FBP % Fold@1.54 μM mean (PKR(G332S); 1.54 μM compound): ++ (>75% and ≤250% (++)); H—AC50 LUM KGP woFBP MAX % FOLD mean (PKR(wt)): ++ (>75% and ≤250% (++)); J—AC50 LUM KGP woFBP % Fold@1.54 μM mean (PKR(wt); 1.54 μM compound): ++ (>75% and ≤250% (++))
